# Assay results as given in patent US7579356B2, “Thia-tetraazaacenaphthylene kinase inhibitors” (Janssen Pharmaceutica NV, priority 2005, dated 2009).
# Columns and labels:
# Lyn kinase (human) = molecular target: T1, Lyn kinase (human) (Homo sapiens, UniProt P07948); experiment: Lyn Kinase Assay; format: biochemical; conditions: test concentration of 2 μM
# T1 construct: purchased Upstate Biotechnology, Lake Placid, N.Y
# Procedure, shortened: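 Radiometric filter-binding assay with recombinant human Lyn, poly(Glu,Tyr) substrate (0.1 mg/mL final), 5 μM ATP plus γ-33P-ATP in MOPS pH 7.5/Mg acetate buffer; 40 min at 30 °C, stopped with phosphoric acid, counted by scintillation. Reported as percent inhibition at 2 μM, with IC50 (μM) where determined.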
# HER-2 = molecular target: T2, HER-2 (Homo sapiens, UniProt P04626); experiment: HER-2 Kinase Assay; format: biochemical; conditions: value in parentheses
# T2 construct: His6 with thrombin site (N); purchased Proqinase (Freiburg, Germany)
# Procedure, shortened: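 Read-out was scintillation counting of 33P incorporated into biotinylated polyGluTyr captured on streptavidin plates. Reactions ran 1 h at 30 °C with GST-fused HER-2 residues 679–1255, 1 μM ATP, Mn2+ and Mg2+ at pH 7.5; data given as percent inhibition at 1 μM, with IC50 where determined.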
# A375 malignant melanoma = experiment: Cell Proliferation Inhibition Assay, A375 (14C-thymidine); format: cell-based; conditions: Homo sapiens, A-375
# Description: Cell Proliferation Inhibition Assay
# The ability of a test compound to inhibit unregulated cell proliferation may be determined by measuring incorporation of ^14C-labelled thymidine into newly synthesized DNA within cell lines derived from carcinomas originating from several tissues. Accordingly, the effect of a test compound on proliferation of cells with a variety of phenotypes may be determined.
# Carcinoma cell lines used include the HeLa cervical adenocarcinoma from the American Type Culture Collection (ATCC Cat. #CCL2), A375 malignant melanoma (ATCC Cat. #CRL-1619), HCT-116 colon carcinoma (ATCC Cat. #CCL-247), SKBR3 breast carcinoma (ATCC Cat. #HTB-30) and BT474 breast carcinoma (ATCC Cat. #HTB-20).
# The carcinoma cells were trypsinized and counted. The cells (3000-8000 count) were added to each well of a 96-well CytoStar tissue culture treated scintillating microplate (Amersham #RPNQ0160) in complete medium (100 μL) and the plate was then incubated in complete medium for 24 hrs at 37° C. in an inert atmosphere containing 5% CO2.
# Test compound (1 μL) in 100% DMSO was added to the plate test-wells with DMSO only added to control-wells. The plate was incubated in complete medium for a second 24 hr period at 37° C. in an atmosphere containing 5% CO2.
# An aliquot of a solution of Methyl ^14C-thymidine (56 mC/mmol) (NEN #NEC568 or AMersham #CFA532) and complete medium (20 uL to provide 0.2 μCl/well) was then added to each well and the plate was incubated for a third 24 hr period at 37° C. in an atmosphere containing 5% CO2.
# The plate contents were then discarded, the plate washed twice with PBS (200 μL) and then PBS (200 μL) was added to each well. The plate was sealed and the degree of methyl ^14C-thymidine incorporation was quantified on a Packard Top Count.
# Cell proliferation of the Hela cell line was measured using the ATP-Lite method as described in the ATP Lite Kit (Perkin-Elmer Kit Number 6106941) or the C^14 method as described above. Cell proliferation of the other cell lines was measured using the C^14 method.
# T2 sequence (P04626 679-1255): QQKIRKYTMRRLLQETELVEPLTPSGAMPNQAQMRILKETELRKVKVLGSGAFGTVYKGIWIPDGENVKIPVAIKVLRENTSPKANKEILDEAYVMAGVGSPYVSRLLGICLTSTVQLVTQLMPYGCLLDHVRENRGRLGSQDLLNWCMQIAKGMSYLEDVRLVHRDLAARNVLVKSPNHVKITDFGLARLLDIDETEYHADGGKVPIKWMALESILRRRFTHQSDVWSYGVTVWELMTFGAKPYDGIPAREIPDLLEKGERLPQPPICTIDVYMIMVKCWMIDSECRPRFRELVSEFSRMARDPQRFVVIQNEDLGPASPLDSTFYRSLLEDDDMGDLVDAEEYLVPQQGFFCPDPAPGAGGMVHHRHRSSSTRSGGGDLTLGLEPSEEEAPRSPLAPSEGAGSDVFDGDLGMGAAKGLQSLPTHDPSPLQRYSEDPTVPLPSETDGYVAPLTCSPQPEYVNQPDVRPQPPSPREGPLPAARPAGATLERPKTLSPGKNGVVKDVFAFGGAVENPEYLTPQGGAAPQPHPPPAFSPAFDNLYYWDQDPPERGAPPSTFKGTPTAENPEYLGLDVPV
# T1 sequence (P07948 whole entry): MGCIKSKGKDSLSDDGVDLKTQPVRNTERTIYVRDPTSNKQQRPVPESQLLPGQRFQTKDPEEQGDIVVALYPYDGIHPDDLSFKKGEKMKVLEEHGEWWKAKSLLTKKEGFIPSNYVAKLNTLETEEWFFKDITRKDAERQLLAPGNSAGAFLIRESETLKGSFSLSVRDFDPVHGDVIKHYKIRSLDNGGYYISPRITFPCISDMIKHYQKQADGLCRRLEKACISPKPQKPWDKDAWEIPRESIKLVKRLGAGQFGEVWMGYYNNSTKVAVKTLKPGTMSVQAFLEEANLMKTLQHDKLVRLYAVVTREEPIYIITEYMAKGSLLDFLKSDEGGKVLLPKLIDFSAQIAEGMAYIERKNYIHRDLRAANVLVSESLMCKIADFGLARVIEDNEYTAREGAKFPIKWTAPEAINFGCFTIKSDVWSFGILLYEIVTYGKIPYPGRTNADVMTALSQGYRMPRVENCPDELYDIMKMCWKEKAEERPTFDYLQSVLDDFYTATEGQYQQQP
inhibition at 2 µM (Lyn kinase (human)) [%],IC50 (HER-2) [µM],IC50 (A375 malignant melanoma) [µM],SMILES
12,13,100,"Cc1ccc(Br)cc1N1C(=O)Nc2c(C(=O)NC3CCN(C)CC3)sc3ncnc1c23 [Cpd 117, 5-(5-bromo-2-methyl-phenyl)-4-oxo-4,5-dihydro-3H-1-thia-3,5,6,8-tetraaza-acenaphthylene-2-carboxylic acid (1-methyl-piperidin-4-yl)-amide]"
12,~100,10,"CN1CCC(NC(=O)c2sc3ncnc4c3c2NC(=O)N4c2ccc(Oc3ccc(F)cc3)cc2)CC1 [Cpd 118, 5-[4-(4-fluoro-phenoxy)-phenyl]-4-oxo-4,5-dihydro-3H-1-thia-3,5,6,8-tetraaza-acenaphthylene-2-carboxylic acid (1-methyl-piperidin-4-yl)-amide]"
